Structures are written as SMILES.

The term IC50 denotes the concentration that gives 50% inhibition.

The first assay relates to ATF4 translation (ISR pathway activation). Nature of the assay: ATF4 Nano Luciferase reporter integrated stress response (ISR) assay in H4 ATF4-NLuc (clone 17) cells. It counts as cell-based, human. As to conditions: H4 ATF4-NLuc (clone 17) cells; compounds 30 minutes at 37 degree Celsius, then 50 um sodium arsenite for 6 additional hours; luminescence readout; read-out: IC50. From the text:
Cellular stress leads to activation of the integrated stress response pathway through one of four eukaryotic initiation factor 2α kinases and halts global translation, while allowing for the translation of select transcripts like ATF4 (activating transcription factor 4) that are important for the response to cellular stress. During normal conditions, small open reading frames (ORFs) in the 5′ UTR of ATF4 occupy the ribosome and prevent translation of the coding sequence of ATF4. During stress conditions however, the ribosome scans past these upstream ORFs and preferentially begins translation at the coding sequence of ATF4. In this way, the translation, and thus protein level of ATF4 is a readout of ISR pathway activation. Thus, a fusion of the uORFs and the beginning of the coding sequence of ATF to a common cellular reporter like nano-luciferase allows for a sensitive and high-throughput readout of ISR pathway activity.
Compounds as provided herein were tested in the following assay. The ATF4 Nano Luciferase reporter was constructed by fusing the human full length 5′ untranslated region (5′-UTR) and a small portion of the coding sequence of the ATF4 gene upstream of the Nano Luciferase (NLuc) coding sequence lacking it's start codon. Specifically, nucleotides +1 through +364 (relative to the transcriptional start site) of ATF4 transcript variant 2 (NCBI NM_182810.2) flanked 5′ by EcoRI and 3′ by BamHI restriction enzyme sites were synthesized and cloned into the EcoRI/BamHI cloning sites of pLVX-EF1a-IRES-Puro lentivirus vector (Clontech). […]. H4 cells were selected with […] Puromycin, and clonal cell lines generated by limiting dilution. We utilized this cell line to generate an integrated stress response (ISR) assay to evaluate the activity of ISR pathway inhibitors via luminescence readout. The H4 ATF4-NLuc (clone 17) cell line is plated at a density of […] in 96-well or 384-well respectively in DMEM+10% fetal bovine serum. 24-hours later test compounds diluted in dimethyl sulfoxide (DMSO) are added for 30 minutes at 37 degree Celsius, followed by ISR pathway activation with 50 um sodium arsenite aqueous solution for 6 additional hours. Nano Glo luciferase reagent (N1150, Promega) is added according to manufacturer instructions and the luminescence signal (corresponding to the level of ATF4 translation and thus ISR pathway activation) is read with a standard plate reader with luminescence detection capabilities.
In the table below, activity of the tested compounds is provided in Table 3 as follows: +++=IC50<1 μM; ++=IC50 1-10 μM; +=IC50>10 μM.
For orientation: Reporter assays use an easily measured gene product as a stand-in for the process of interest.
In the case of `O=C(COc1ccc(Cl)c(F)c1)NC1CC(OCCOC2CC(OC(F)(F)F)C2)C1` (single isomer, unassigned) [42 (isomer 2), 2-(4-chloro-3-fluoro-phenoxy)-N-[3-[2-[3-cis-(trifluoromethoxy)cyclobutoxy]ethoxy]-trans-cyclobutyl]acetamide], the IC50 was less than 1000 nM.

Still in this assay, the particulars now being: Homo sapiens, 0.5 h.
Consider `O=C(COc1ccc(Cl)cc1)N[C@H]1CC[C@H](c2nnc(C3CC(OC(F)(F)F)C3)o2)CC1` (stereo partly drawn) [Example 29, 2-(4-chlorophenoxy)-N-[4-[5-[3-cis-(trifluoromethoxy)cyclobutyl]-1,3,4-oxadiazol-2-yl]cyclohexyl]acetamide], for which the IC50 is less than 1000 nM. On the same count and under the same terms, the value for `O=C(COC1CC(OC(F)(F)F)C1)NC1CCN(c2nnc(-c3ccc(Cl)cc3)o2)CC1` (stereo not drawn) [Example 44, N-[1-[5-(4-chlorophenyl)-1,3,4-oxadiazol-2-yl]-4-piperidyl]-2-[3-cis-(trifluoromethoxy)cyclobutoxy]acetamide] was less than 1000 nM; that for `O=C(COc1ccc(Cl)cc1)NC12CC(NC(=O)COC3CCC3)(C1)C2` [Example 1, 2-(4-chlorophenoxy)-N-(3-(2-cyclobutoxyacetamido)bicyclo[1.1.1]pentan-1-yl)acetamide] was less than 1000 nM; that for `O=C(COc1ccc(Cl)cc1)N[C@H]1C[C@@H]2CN(C(=O)COC3CC(OC(F)(F)F)C3)C[C@@H]2C1` (stereo partly drawn) [Example 59] was less than 1000 nM. In turn, `O=C(COc1ccc(Cl)cc1)NC1CC2CN(c3cnn([C@H]4C[C@@H](OC(F)(F)F)C4)c3)CC2C1` (stereo partly drawn) [Example 61, 2-(4-chlorophenoxy)-N-(2-(1-(3-cis-(trifluoromethoxy)cyclobutyl)-1H-pyrazol-4-yl)octahydrocyclopenta[c]pyrrol-5-yl)acetamide] returned an IC50 greater than 10000 nM.

The same assay, now with this note: Homo sapiens, 0.5 h; H4 ATF4-NLuc (clone 17) cells; compounds 30 minutes at 37 degree Celsius, then 50 um sodium arsenite for 6 additional hours; luminescence readout; read-out: IC50.
For the compound `O=C(COCC1CC1(F)F)NC12CC(NC(=O)c3ccc4cc(C(F)(F)F)ccc4n3)(C1)C2` (stereo not drawn) [Example 55, N-[1-[[2-[(2,2-difluorocyclopropyl)methoxy]acetyl]amino]-3-bicyclo[1.1.1]pentanyl]-6-(trifluoromethyl)quinoline-2-carboxamide], the IC50 was less than 1000 nM.

Consider `O=C(COc1ccc(Cl)c(F)c1)NC12CC(NC(=O)COC3CC(F)C3)(C1)C2` (stereo not drawn) [Example 9], for which the IC50 was less than 1000 nM. Same read-out and setting: in the case of `O=C(COc1ccc(Cl)c(F)c1)NC1CN(c2nnc(COC3CC(OC(F)(F)F)C3)o2)C1` (stereo not drawn) [Example 23, 2-(4-chloro-3-fluoro-phenoxy)-N-[1-[5-[[3-cis-(trifluoromethoxy)cyclobutoxy]methyl]-1,3,4-oxadiazol-2-yl]azetidin-3-yl]acetamide] it was less than 1000 nM; in that of `O=C(COC1CC(F)C1)NC12CC(NC(=O)c3ccc4cc(C(F)(F)F)ccc4n3)(C1)C2` (stereo not drawn) [Example 53, N-[1-[[2-(3-trans-fluorocyclobutoxy)acetyl]amino]-3-bicyclo[1.1.1]pentanyl]-6-(trifluoromethyl)quinoline-2-carboxamide], less than 1000 nM.

Regarding `N#CC1CC(OCC(=O)N2CC3(CC(NC(=O)COc4ccc(Cl)c(F)c4)C3)C2)C1` (stereo not drawn) [Example 20, 2-(4-chloro-3-fluoro-phenoxy)-N-[2-[2-(3-cyanocyclobutoxy)acetyl]-2-azaspiro[3.3]heptan-6-yl]acetamide], the IC50 was less than 1000 nM. For the compound `O=C(COc1ccc(Cl)c(F)c1)NC1CN(C(=O)COC2CC(OC(F)(F)F)C2)C1` (stereo not drawn) [Example 24, 2-(4-chloro-3-fluoro-phenoxy)-N-[1-[2-[3-cis-(trifluoromethoxy)cyclobutoxy]acetyl]azetidin-3-yl]acetamide], the IC50 fell in the range of 1000 to 10000 nM. As for `O=C(COC1CC(OC(F)(F)F)C1)NC12CC(NC(=O)c3ccc4cc(F)c(F)cc4n3)(C1)C2` (stereo not drawn) [Example 69, 6,7-difluoro-N-(3-(2-(3-cis-(trifluoromethoxy)cyclobutoxy)acetamido)bicyclo[1.1.1]pentan-1-yl)quinoline-2-carboxamide], the IC50 is less than 1000 nM. On the same count and under the same terms, in the case of `O=C(COc1ccc(Cl)c(F)c1)NC1CCN(CCO[C@H]2C[C@@H](OC(F)(F)F)C2)CC1` [Example 27, 2-(4-chloro-3-fluoro-phenoxy)-N-[1-[2-[3-cis-(trifluoromethoxy)cyclobutoxy]ethyl]-4-piperidyl]acetamide] it was less than 1000 nM; in that of `CC1(C)CC(OCC(=O)NC23CC(NC(=O)COc4ccc(Cl)cc4)(C2)C3)C1` [Example 5, 2-(4-chlorophenoxy)-N-(3-(2-(3,3-dimethylcyclobutoxy)acetamido)bicyclo[1.1.1]pentan-1-yl)acetamide], less than 1000 nM. Same read-out and setting: in the case of `O=C(COc1ccc(Cl)c(F)c1)N[C@@H]1C[C@@H]2CN(C(=O)COC3CCC3)C[C@@H]2C1` [Example 41, 2-(4-chloro-3-fluorophenoxy)-N-((3aR,5r,6aS)-2-(2-cyclobutoxyacetyl)octahydrocyclopenta[c]pyrrol-5-yl)acetamide] it was less than 1000 nM; in that of `O=C(COc1ccc(Cl)c(F)c1)NC12CC(NC(=O)COC3CCC3)(C1)C2` [Example 10, 2-(4-chloro-3-fluorophenoxy)-N-(3-(2-cyclobutoxyacetamido)bicyclo[1.1.1]pentan-1-yl)acetamide], less than 1000 nM. Still for that read-out and setting: in the case of `O=C(COC1CCC1)NC12CC(NC(=O)c3ccc4cc(Cl)ccc4n3)(C1)C2` [Example 65, 6-chloro-N-[1-[[2-(cyclobutoxy)acetyl]amino]-3-bicyclo[1.1.1]pentanyl]quinoline-2-carboxamide] it was less than 1000 nM. Turning to `CC1(C#N)CC(OCC(=O)NC23CC(NC(=O)COc4ccc(Cl)c(F)c4)(C2)C3)C1` (stereo not drawn) [Example 11, 2-(4-chloro-3-fluorophenoxy)-N-(3-(2-(3-cyano-3-methylcyclobutoxy)acetamido)bicyclo[1.1.1]pentan-1-yl)acetamide], the IC50 is less than 1000 nM. Regarding `O=C(COc1ccc(Cl)cc1)NC12CC(NC(=O)COC3CC(C(F)(F)F)C3)(C1)C2` (single isomer, unassigned) [3 (first eluting isomer), 2-(4-chlorophenoxy)-N-(3-(2-(3-(trifluoromethyl)cyclobutoxy)acetamido)bicyclo[1.1.1]pentan-1-yl)acetamide], the IC50 was less than 1000 nM. The same measure, in the same setting: in the case of `O=C(COC1CC(OC(F)(F)F)C1)NC12CC(NC(=O)c3ccc4cc(C(F)(F)F)ccc4n3)(C1)C2` (stereo not drawn) [Example 51, N-[1-[[2-[3-cis-(trifluoromethoxy)cyclobutoxy]acetyl]amino]-3-bicyclo[1.1.1]pentanyl]-6-(trifluoromethyl)quinoline-2-carboxamide] it was less than 1000 nM; in that of `CC1CC(OCC(=O)NC23CC(NC(=O)COc4ccc(Cl)cc4)(C2)C3)C1` (stereo not drawn) [Example 36, 2-(4-chlorophenoxy)-N-[3-[[2-(3-cis-methylcyclobutoxy)acetyl]amino]-1-bicyclo[1.1.1]pentanyl]acetamide], less than 1000 nM; in that of `O=C(COC1CC(OC(F)(F)F)C1)NC12CC(NC(=O)COC3CC(OC(F)(F)F)C3)(C1)C2` (stereo not drawn) [Example 39, 2-[3-cis-(trifluoromethoxy)cyclobutoxy]-N-[3-[[2-[3-cis-(trifluoromethoxy)cyclobutoxy]acetyl]amino]-1-bicyclo[1.1.1]pentanyl]acetamide], less than 1000 nM. Take `O=C(COc1ccc(Cl)c(F)c1)NC1CC2(C1)CN(C(=O)COC1CCC1)C2` [Example 19, 2-(4-chloro-3-fluoro-phenoxy)-N-[2-[2-(cyclobutoxy)acetyl]-2-azaspiro[3.3]heptan-6-yl]acetamide]: the IC50 was less than 1000 nM.

Consider `O=C(COC1CC(OC(F)(F)F)C1)NC12CC(NC(=O)c3ccc4cc(F)ccc4n3)(C1)C2` (stereo not drawn) [Example 66, 6-fluoro-N-[1-[[2-[3-cis-(trifluoromethoxy)cyclobutoxy]acetyl]amino]-3-bicyclo[1.1.1]pentanyl]quinoline-2-carboxamide], for which the IC50 was less than 1000 nM.

For the compound `O=C(COC1CC(OC(F)(F)F)C1)NC12CC(NC(=O)[C@@H]3CCc4cc(C(F)(F)F)ccc4O3)(C1)C2` (single isomer, unassigned) [Example 72 (second eluting isomer), N-(3-(2-(3-cis-(trifluoromethoxy)cyclobutoxy)acetamido)bicyclo[1.1.1]pentan-1-yl)-6-(trifluoromethyl)chroman-2-carboxamide], the IC50 was less than 1000 nM.

For the compound `O=C(NC1CCN(C(=O)COC2CC(OC(F)(F)F)C2)CC1)c1ccc2cc(Cl)ccc2n1` (stereo not drawn) [Example 63, 6-chloro-N-[1-[2-[3-cis-(trifluoromethoxy)cyclobutoxy]acetyl]-4-piperidyl]quinoline-2-carboxamide], the IC50 is less than 1000 nM.

For the origin of these results see patent publication US20210130308A1, “MODULATORS OF EUKARYOTIC INITIATION FACTOR 2” (Denali Therapeutics Inc., priority 2018, published 2021).
